Reference: patent publication US20220211726A1, “UVEAL MELANOMA TREATMENT” (Katholieke Universiteit Leuven, priority 2019, published 2022)

Legend:
[1] = test system: uveal melanoma (UM 92.1) cell line; experiment: IncuCyte proliferation assay (% cell confluency); format: cell-based; settings: UM 92.1 (GNAQ mutant), increasing concentrations of Tigecycline, 72 h, FIG. 4
Protocol: (§1) For IncuCyte Proliferation Assays, cells were plated in 96-well plates (TPP) at the appropriate density (between 2.5×10^3, to 1.5×10^4). Cells were treated with increasing amounts of Tigecycline or Doxycycline and cultured for 72 h. Apoptotic cells were labelled with the IncuCyte Caspase 3/7 Green Apoptosis Assay Reagent (Essen BioScience). Four images per well were taken at 2-hour intervals using an IncuCyte ZOOM system (Essen BioScience). The percentage of cell confluency and fluorescent green counts indicating apoptotic cells were measured and analysed by the IncuCyte ZOOM software.

[2] = test system: uveal melanoma PDX model Mel-077; experiment: Uveal melanoma PDX experiment, tumour volume; format: in vivo; settings: Mel-077 PDX mice, Tigecycline 50 mg/kg daily i.p. monotreatment vs vehicle (DMSO), FIG. 5
Protocol: Tumour pieces were implanted subcutaneously in the interscapular fat pad of female NMRI nude, 4-week-old females. Once tumours reached 250 mm^3, the mice were enrolled into treatment cohorts. Mice were treated with Tigecycline (50 mg/kg) administered by daily i.p. injection. No specific randomization method was used.

[3] = test system: uveal melanoma cell line (UM92.1); experiment: IncuCyte Caspase 3/7 Green apoptosis assay; format: cell-based; settings: UM92.1, increasing concentrations of Tigecycline
Protocol: as §1

SMILES: CN(C)c1cc(NC(=O)CNC(C)(C)C)c(O)c2c1C[C@H]1C[C@H]3[C@H](N(C)C)C(O)=C(C(N)=O)C(=O)[C@@]3(O)C(O)=C1C2=O [Tigecycline]
- cell growth (measured as % of cell confluency) [1]: significant and dose-dependent decrease in cell growth
- tumour growth / progression (tumour volume) [2]: sufficient to stabilise tumour growth and significantly delay progression
- apoptosis (activated caspase 3/7 staining) [3]: no increase in apoptosis
